Measurements: patent publication US12162893B2 (Erasca, Inc., priority 2020, dated 2024)

target: T1, mutant G12C K-RAS (Homo sapiens, UniProt P01116, G12C); assay: covalent adduct formation (CAF) with mutant G12C K-RAS; type: binding; set-up: CAF: unit not given here; conditions: Table 2, Pyrimidone Core-Morpholine Substituted; after 60 minutes at 10 micromolar
T1 construct: made in house; host or cells: E. coli BL21
Experimental: Embodiments disclosed herein are further illustrated by the following examples in Tables 1-4 and the Examples hereinbelow. The Tables indicate the compound number, structure, the observed mass spectral molecular weight peak, and covalent adduct formation (CAF) with a mutant G12C K-RAS after 60 minutes at a concentration of 10 micromolar.

In order of falling “% CAF (60 min)” value:
1. C=CC(=O)N1CCN(c2nc(=O)n3c4c(c(-c5c(O)cccc5F)c(Cl)cc24)OC[C@@H]3CO)[C@@H](C)C1 (single isomer, unassigned) [Example 25]  84.7%
2. C=CC(=O)N1C[C@H](C)N(c2nc(=O)n3c4c(c(-c5c(O)cccc5F)c(Cl)cc24)OC[C@H]3CO)C[C@H]1C [Example 30]  68.1%

same assay, conditions: Table 3, Pyridone Core-Morpholine Unsubstituted; after 60 minutes at 10 micromolar

In order of falling CAF:
1. C=CC(=O)N1CCN(c2cc(=O)n3c4c(c(-c5c(C)ccc6[nH]ncc56)ccc24)CCC3)CC1 [Example 46, 1-(4-acryloylpiperazin-1-yl)-8-(5-methyl-1H-indazol-4-yl)-6,7-dihydropyrido[3,2,1-ij]quinolin-3(5H)-one]  12
2. C=CC(=O)N1CCN(c2cc(=O)n3c4c(c(-c5c(O)cccc5F)ccc24)CCC3)CC1 [Example 45, 1-(4-acryloylpiperazin-1-yl)-8-(2-fluoro-6-hydroxyphenyl)-6,7-dihydropyrido[3,2,1-ij]quinolin-3(5H)-one]  1
3. C=CC(=O)N1CCN(c2cc(=O)n3c4c(c(-c5c(C)ccc6[nH]nc(C)c56)ccc24)CCC3)CC1 [Example 48, 1-(4-acryloylpiperazin-1-yl)-8-(3,5-dimethyl-1H-indazol-4-yl)-6,7-dihydropyrido[3,2,1-ij]quinolin-3(5H)-one]  1
4. C=CC(=O)N1C[C@H](C)N(c2c(C#N)c(=O)n3c4c(c(-c5c(O)cccc5F)c(Cl)cc24)OCC3)C[C@H]1C [Example 43, (R)-7-((2S,5R)-4-acryloyl-2,5-dimethylpiperazin-1-yl)-9-chloro-10-(2-fluoro-6-hydroxyphenyl)-5-oxo-3,5-dihydro-2H-[1,4]oxazino[2,3,4-ij]quinoline-6-carbonitrile]  0

same assay, conditions: Table 6; 10 μM, 1 h

In order of falling “% CAF @ 10 μM,1 h” value:
1. C=CC(=O)N1CCN(c2nc(=O)n3c4c(c(-c5c(O)cccc5F)c(Cl)cc24)OC[C@@H]3CN2CCOCC2)[C@@H](C)C1 [Example 196, (3S,10S)-7-((S)-4-acryloyl-2-methylpiperazin-1-yl)-9-chloro-10-(2-fluoro-6-hydroxyphenyl)-3-(morpholinomethyl)-2,3-dihydro-5H-[1,4]oxazino[2,3,4-ij]quinazolin-5-one]  97.6%
2. C=CC(=O)N1C[C@H](C)N(c2nc(=O)n3c4c(c(-c5ccc(F)cc5F)c(Cl)cc24)OC[C@H]3CCCN2CCN(C)C(=O)C2)C[C@H]1C [Example 283, (3R)-7-((2S,5R)-4-acryloyl-2,5-dimethylpiperazin-1-yl)-9-chloro-10-(2,4-difluorophenyl)-3-(3-(4-methyl-3-oxopiperazin-1-yl)propyl)-2,3-dihydro-5H-[1,4]oxazino[2,3,4-ij]quinazolin-5-one]  92.4%
3. C=CC(=O)N1C[C@H](C)N(c2nc(=O)n3c4c(c(-c5ccc(F)cc5F)c(Cl)cc24)OC[C@H]3CCN2CCOCC2)C[C@H]1C [Example 213, (3R)-7-((2S,5R)-4-acryloyl-2,5-dimethylpiperazin-1-yl)-9-chloro-10-(2,4-difluorophenyl)-3-(2-morpholinoethyl)-2H-[1,4]oxazino[2,3,4-ij]quinazolin-5(3H)-one]  90.6%
4. C=CC(=O)N1C[C@H](C)N(c2nc(=O)n3c4c(c(-c5c(O)cccc5F)c(Cl)cc24)OC[C@H]3CN2CCOCC2)C[C@H]1C (atropisomer, axis not shown) [Example 209, (3R,10S)-7-((2S,5R)-4-acryloyl-2,5-dimethylpiperazin-1-yl)-9-chloro-10-(2-fluoro-6-hydroxyphenyl)-3-(morpholinomethyl)-2,3-dihydro-5H-[1,4]oxazino[2,3,4-ij]quinazolin-5-one]  85%
5. C=CC(=O)N1C[C@H](C)N(c2nc(=O)n3c4c(c(-c5ccc(F)cc5F)c(Cl)cc24)OC[C@H]3CN2CCN(C)CC2)C[C@H]1C [Example 256, (3R)-7-((2S,5R)-4-acryloyl-2,5-dimethylpiperazin-1-yl)-9-chloro-10-(2,4-difluorophenyl)-3-((4-methylpiperazin-1-yl)methyl)-2H-[1,4]oxazino[2,3,4-ij]quinazolin-5(3H)-one]  80.1%
6. C=CC(=O)N1C[C@H](C)N(c2nc(=O)n3c4c(c(-c5cccc6ccccc56)c(Cl)cc24)OC[C@H]3Cn2ccnc2)C[C@H]1C (atropisomer, axis not shown) [Example 317, (3R,10R)-3-((1H-imidazol-1-yl)methyl)-7-((2S,5R)-4-acryloyl-2,5-dimethylpiperazin-1-yl)-9-chloro-10-(naphthalen-1-yl)-2,3-dihydro-5H-[1,4]oxazino[2,3,4-ij]quinazolin-5-one]  72.8%
7. C=CC(=O)N1C[C@H](C)N(c2nc(=O)n3c4c(c(-c5ccc(F)cc5F)c(Cl)cc24)OC[C@H]3Cn2cccn2)C[C@H]1C [Example 234, (3R)-3-((1H-pyrazol-1-yl)methyl)-7-((2S,5R)-4-acryloyl-2,5-dimethylpiperazin-1-yl)-9-chloro-10-(2,4-difluorophenyl)-2H-[1,4]oxazino[2,3,4-ij]quinazolin-5(3H)-one]  71.3%
8. C=CC(=O)N1C[C@H](C)N(c2nc(=O)n3c4c(c(-c5cc(Cl)ccc5F)c(Cl)cc24)OC[C@@H]3CN2CCC(F)(F)C2)C[C@H]1C [Example 214, (3S)-7-((2S,5R)-4-acryloyl 2,5-dimethylpiperazin-1-yl)-9-chloro-10-(5-chloro-2-fluorophenyl)-3-((3,3-difluoropyrrolidin-1-yl)methyl)-2,3-dihydro-5H [1,4]oxazino[2,3,4-ij]quinazolin-5-one]  60.9%
9. C=CC(=O)N1C[C@H](C)N(c2nc(=O)n3c4c(c(-c5ccc(F)cc5F)c(C#N)cc24)OC[C@H]3CCCN2C[C@@H]3C[C@H]2CO3)C[C@H]1C [Example 332, (3R)-3-(3-((1S,4S)-2-oxa-5-azabicyclo[2.2.1]heptan-5-yl)propyl)-7-((2S,5R)-4-acryloyl-2,5-dimethylpiperazin-1-yl)-10-(2,4-difluorophenyl)-5-oxo-2,3-dihydro-5H-[1,4]oxazino[2,3,4-ij]quinazoline-9-carbonitrile]  56.9%
10. C=CC(=O)N1C[C@H](C)N(c2nc(=O)n3c4c(c(-c5ccc(F)cc5F)c(Cl)cc24)O[C@@H](CCCN2C4CCC2COC4)C3)C[C@H]1C [Example 262, (2S)-2-(3-(3-oxa-8-azabicyclo[3.2.1]octan-8-yl)propyl)-7-((2S,5R)-4-acryloyl-2,5-dimethylpiperazin-1-yl)-9-chloro-10-(2,4-difluorophenyl)-2,3-dihydro-5H-[1,4]oxazino[2,3,4-ij]quinazolin-5-one]  31.6%
11. C=CC(=O)N1C[C@H](C)N(c2nc(=O)n3c4c(c(-c5c(F)ccc6c5C(=O)NC6)ccc24)OCC3)C[C@H]1C [Example 231, 7-((2S,5R)-4-acryloyl-2,5-dimethylpiperazin-1-yl)-10-(5-fluoro-3-oxoisoindolin-4-yl)-2,3-dihydro-5H-[1,4]oxazino[2,3,4-ij]quinazolin-5-one]  0%
12. C=CC(=O)N1C[C@H](C)N(c2nc(=O)n3c4c(c(-c5c(O)cccc5F)c(Cl)cc24)OC[C@@H]3CN2CCOCC2)C[C@H]1C (atropisomer, axis not shown) [Example 208, (3R,10R)-7-((2S,5R)-4-acryloyl-2,5-dimethylpiperazin-1-yl)-9-chloro-10-(2-fluoro-6-hydroxyphenyl)-3 - (morpholinomethyl)-2,3-dihydro-5H-[1,4]oxazino[2,3,4-ij]quinazolin-5-one]  0%
